In patent US11959102B2, “Augmentation of fibroblast regenerative activity” (Figene, LLC, priority 2017, dated 2024):

Tested on: Foreskin fibroblasts
Assay: VEGF production by cultured fibroblasts, ELISA of culture media
Assay type: cell-based
Conditions: media after 24 hours of culture
Experimental: (§1) Foreskin fibroblasts purchased from ATCC where cultured in T-75 flasks using Fibroblast Basal Media from ATCC. When cells reached 75% confluence, exposure to: a) Normoxia; b) hypoxia (2% oxygen for 4 hours); c) carbon monoxide (250 ppm) for 4 hours; or d) hypoxia followed by carbon monoxide. Cells were re-plated on 96 well plates, flat bottomed, by trypsinization. Concentration of re-plated cells was 0, 10,000, 20,000 and 40,000 cells per well. Culture media was extracted after 24 hours of culture and analyzed for VEGF production using ELISA (R&D Systems). […] No VEGF production was observed from Normoxic Control fibroblasts.
as §1, with “simultaneously as” for “followed by”, “monoxide” for “monoxide.”, “replated” for “re-plated”

Structure (SMILES): [C-]#[O+] [carbon monoxide]
- VEGF production (hypoxia (2% oxygen for 4 hours) followed by carbon monoxide (250 ppm, 4 hours), FIG. 1): synergistic increase
- VEGF production (hypoxia (2% oxygen for 4 hours) simultaneously as carbon monoxide (250 ppm), FIG. 2): synergistic increase
